According to patent publication US12454546B2, “Inotodiol ester derivative precursor drug” (CARBOEXPERT INC., priority 2020, dated 2025):
Converted amounts (≈) assume the structure as drawn.

Key:
[1] = Solubility of inotodiol in organic solvents (Example 1, HPLC-UV-VIS of supernatant); assay type: physicochemical; details: 30 °C
Procedure: To measure the […] solubility of inotodiol, the following was performed.
First, 50 mg of an inotodiol sample was mixed with 1 ml of an organic solvent. Subsequently, the mixture was vortexed and placed in a water bath sonicator for 15 minutes. […]

physchem [2] = details: distilled water, 30 °C, thermodynamic from solid
Procedure: (§1) To measure the solubility of inotodiol esters with respect to water, 5 mg of each sample was suspended in 1 mL of distilled water and treated in an ultrasonic bath for 30 minutes. The mixture was then treated in an ultrasonic bath (Power sonic 410) for 30 minutes. Then, the mixture was incubated at 30° C. for 3 hours. The supernatant obtained after centrifugation (20,000×g, 10 minutes) was filtered through a 0.45 μm membrane filter of [sequence]

physchem [3] = details: 30 °C, water, thermodynamic from solid
Procedure: as §1

CC(C)=CC[C@@H](O)[C@@H](C)[C@H]1CC[C@@]2(C)C3=C(CC[C@]12C)[C@@]1(C)CC[C@H](O)C(C)(C)[C@@H]1CC3 [Inotodiol, (3S,5R,10S,13R,14R,17R)-17-[(2S,3R)-3-hydroxy-6-methylhept-5-en-2-yl]-4,4,10,13,14-pentamethyl-2,3,5,6,7,11,12,15,16,17-decahydro-1H-cyclopenta[a]phenanthren-3-ol]
Inotodiol concentration ([1]; solvent acetonitrile): 0.976 mg/mL
Inotodiol concentration ([1]; solvent dichloromethane): 24.675 mg/mL
Inotodiol concentration ([1]; solvent ethanol): 25.152 mg/mL
Inotodiol concentration ([1]; solvent ethyl acetate): 8.685 mg/mL
Inotodiol concentration ([1]; solvent hexane): 0.094 mg/mL
Inotodiol concentration ([1]; solvent methanol): 7.964 mg/mL
Inotodiol concentration ([1]; solvent t-butanol): 26.493 mg/mL
solubility at 3 h (physchem [2]): 0.0005 ± 0.00018 mg/mL (≈ 0.00113 mM)
solubility at 3 h (physchem [3]): 31 ± 3.8 mg/mL (≈ 70 mM)
